Measured values taken from ChEMBL document CHEMBL1159184, “7-Silylcamptothecins (silatecans): A new family of camptothecin antitumor agents” (Bioorg Med Chem Lett, 1997).

Experiments:
HL-60 = experiment: Tested in vitro for growth inhibitory activity against HL60 (human promyelocytic leukemic) cells; type: functional, cell-based
833K = experiment: Tested in vitro for growth inhibitory activity against 833K (human teratorcarcinoma) cells; type: functional, cell-based
DC3F [1] = experiment: Tested in vitro for growth inhibitory activity against DC-3F (hamster lung) cells; type: functional, cell-based; conditions: Cricetulus griseus
[2] = The compound was evaluated for enhancement of topoisomerase I mediated DNA cleavage of supercoiled DNA; 1-2; type: functional
[3] = The compound was evaluated for inhibition of topoisomerase I mediated DNA relaxation of supercoiled DNA; 1-2; type: functional
[4] = The compound was evaluated for inhibition of topoisomerase I mediated DNA relaxation of supercoiled DNA; type: functional
DC3F [5] = experiment: The compound was tested in vitro for growth inhibitory activity against DC-3F (hamster lung) cells; Inactive; type: functional, cell-based, Cricetulus griseus
[6] = The compound was evaluated for enhancement of topoisomerase I mediated DNA cleavage of supercoiled DNA; 0.1-1; type: functional
[7] = The compound was evaluated for enhancement of topoisomerase I mediated DNA cleavage of supercoiled DNA; 2-5; type: functional
[8] = The compound was evaluated for inhibition of topoisomerase I mediated DNA relaxation of supercoiled DNA; 5-20; type: functional
[9] = The compound was evaluated for inhibition of topoisomerase I mediated DNA relaxation of supercoiled DNA; 0.1-1; type: functional

Row | Structure (SMILES) | IC50 (HL-60) [nM] | IC50 (833K) [nM] | IC50 (DC3F [1]) [nM] | Enhancement [2] [µM] | Inhibition [3] [µM] | Inhibition [4] [µM] | IC50 (DC3F [5]) | Enhancement [6] [µM] | Enhancement [7] [µM] | Inhibition [8] [µM] | Inhibition [9] [µM]
1 | CC[C@@]1(O)C(=O)OCc2c1cc1n(c2=O)Cc2c-1nc1ccc(N3CCCC3N3CCCC3OC(N)=O)cc1c2[Si](C)(C)C (stereo not given in full) | 66 | 214 | 256 | – | – | – | – | – | – | – | –
2 | CC[C@@]1(O)C(=O)OCc2c1cc1n(c2=O)Cc2c-1nc1c(F)c(F)ccc1c2[Si](C)(C)C | 1.01 | 2.1 | 2.5 | 1 | 1 | – | – | – | – | – | –
3 | CC[C@@]1(O)C(=O)OCc2c1cc1n(c2=O)Cc2c-1nc1ccc(CCc3ccc4nc5c(c([Si](C)(C)C)c4c3)Cn3c-5cc4c(c3=O)COC(=O)[C@]4(O)CC)cc1c2[Si](C)(C)C | 53 | 84 | – | – | – | > 20 | Not Active | – | – | – | –
4 | CC[C@@]1(O)C(=O)OCc2c1cc1n(c2=O)Cc2c-1nc1ccc(O)cc1c2[Si](C)(C)C | 2.6 | 7 | 6.9 | – | – | < 0.1 | – | 0.1 | – | – | –
5 | CCc1c2c(nc3ccc(N4CCCC4N4CCCC4OC(N)=O)cc13)-c1cc3c(c(=O)n1C2)COC(=O)[C@]3(O)CC (stereo not given in full) | 270 | 487 | 372 | – | – | – | – | – | – | – | –
6 | CC[C@@]1(O)C(=O)OCc2c1cc1n(c2=O)Cc2cc3ccccc3nc2-1 [CAMPTOTHECIN] | 5 | 10 | 6 | 1 | 1 | – | – | – | – | – | –
7 | CC[C@@]1(O)C(=O)OCc2c1cc1n(c2=O)Cc2c-1nc1ccc(OC(C)=O)cc1c2[Si](C)(C)C | 2.7 | – | 6.7 | – | – | < 0.1 | – | 0.1 | – | – | –
8 | CC[C@@]1(O)C(=O)OCc2c1cc1n(c2=O)Cc2c-1nc1cc(F)ccc1c2[Si](C)(C)C | 0.75 | 0.92 | 2 | – | – | < 0.1 | – | 0.1 | – | – | –
9 | CC[C@@]1(O)C(=O)OCc2c1cc1n(c2=O)Cc2c-1nc1ccc(N)cc1c2[Si](C)(C)C | 0.52 | 5.7 | 0.72 | – | – | – | – | – | – | – | –
10 | CC[C@@]1(O)C(=O)OCc2c1cc1n(c2=O)Cc2c-1nc1ccccc1c2[Si](c1ccccc1)(c1ccccc1)C(C)(C)C | 339 | 243 | 663 | – | – | – | – | – | 2 | 5 | –
11 | CC[C@@]1(O)C(=O)OCc2c1cc1n(c2=O)Cc2c-1nc1ccccc1c2[Si](C)(C)C(C)(C)C | 0.12 | 1.2 | 2.9 | – | – | – | – | 0.1 | – | – | 1
12 | CC[C@@]1(O)C(=O)OCc2c1cc1n(c2=O)Cc2c-1nc1cc(F)c(N)cc1c2[Si](C)(C)C | 0.07 | 0.14 | 0.29 | – | – | – | – | 0.1 | – | – | 0.1
13 | CC[C@@]1(O)C(=O)OCc2c1cc1n(c2=O)Cc2c-1nc1ccccc1c2[Si](C)(C)C | 3.8 | 5.6 | 4.2 | – | – | – | – | 0.1 | – | – | 1
14 | CC[C@@]1(O)C(=O)OCc2c1cc1n(c2=O)Cc2c-1nc1cc(N)ccc1c2[Si](C)(C)C | 2.6 | 7.4 | 6.4 | – | – | – | – | – | – | – | –
15 | CCC(=O)OCc1c([C@@](O)(CC)C(=O)NCCN(C)C)cc2n(c1=O)Cc1c-2nc2ccc(O)cc2c1[Si](C)(C)C | 9.7 | 15 | 14.2 | 1 | – | – | – | – | – | 5 | –
16 | CC[C@@]1(O)C(=O)OCc2c1cc1n(c2=O)Cc2c-1nc1cccc(F)c1c2[Si](C)(C)C | 3 | 2.9 | 8.2 | – | – | – | – | 0.1 | – | – | 0.1
